From US20050255537A1, “Method for monitoring treatment with a parathyroid hormone” (priority 1999, published 2005)
Where “and” joins values, the source holds several entries; their conditions need not be identical. Equal values may be shown once.

Columns and labels:
[1] = test system: postmenopausal osteoporotic women; conditions: GHAC efficacy trial, disclosed in PCT/US99/18961; cited from earlier work
human subjects = assay: Applicant's studies of daily dose of hPTH(1-34) in human subjects (bone markers, side effects); assay type: in vivo
Description: Therefore, treatment of osteoporosis in men or women with hPTH(1-34) preferably should use a daily dose greater than about 6 μg, more preferably at least about 15 μg. […] Therefore, any daily dose of hPTH(1-34) in the range of greater than about 6 μg to at least about 40 μg would be effective for reduction of the risk of both vertebral and nonvertebral fractures, according to the present method of using this form of parathyroid hormone.

[2] = test system: BSAP and PICP serum levels, NTX urine levels; assay: Example 2 clinical trial of rhPTH(1-34) plus hormone replacement therapy vs HRT: bone markers; assay type: in vivo, human; conditions: 40 μg/day PTH plus HRT
Description: • Number of Subjects: • rhPTH(1-34) plus hormone replacement therapy (HRT) (estrogen±progesterone): 122 enrolled, 91 finished. • Control, hormone replacement therapy (estrogen±progesterone) without PTH: 125 enrolled, 105 finished. • Diagnosis and Inclusion Criteria: Women aged 62±8 years, postmenopausal for 15±8 years, selected for a baseline spine bone mineral density of 0.9±0.15 and a T value of −1.8. • Dosage and Administration: • Test Product (blinded) • rhPTH(1-34): 40 μg/day, given subcutaneously plus hormone replacement therapy (estrogen±progesterone). Subjects continued their prestudy hormone replacement therapy, maintained an HRT regimen consistent with local medical practices, took continuous/combined estrogen and progestin therapy using oral Premarin (0.625 mg/day) and oral Provera (2.5 mg/day) (intact uterus), or took estrogen therapy using oral Premarin (0.625 mg/day) (without intact uterus). • Reference (Control) Therapy (Blinded) • Hormone replacement therapy (estrogen±progesterone). Subjects continued their prestudy hormone replacement therapy, maintained an HRT regimen consistent with local medical practices, took continuous/combined estrogen and progestin therapy using oral Premarin (0.625 mg/day) and oral Provera (2.5 mg/day) (intact uterus), or took estrogen therapy using oral Premarin (0.625 mg/day) (without intact uterus). • Duration of Treatment: • rhPTH(1-34): up to 18 months • Control: up to 18 months • Criteria for Evaluation: Spine x-ray, serum biological makers (calcium, bone-specific alkaline phosphatase procollagen I carboxy-terminal propeptide); urine markers (calcium, N-telopeptide, fee deoxypyridinoline); 1,25-dihydroxyvitamin D; bone mineral density: spine, hip, wrist, and total body.
Measures of BSAP, PICP, and NTX levels were determined for each patient through the course of therapy generally according to methods described above in Example 1.

[3] = test system: men with primary osteoporosis; assay: Example 5 study GHAJ: bone densitometry (BMD, BMC) in men; assay type: in vivo, human; conditions: for Distal Radius (Forearm) BMD, mean change from baseline to endpoint / Distal Radius (Forearm) BMD, mean percent change from baseline to endpoint / Ultradistal Radius (Forearm) BMD, mean change from baseline to endpoint / Ultradistal Radius (Forearm) BMD, mean percent change from baseline to endpoint / Whole body BMD, mean change from baseline to endpoint: subset of patients; for increase in lumbar spine BMD compared to placebo at endpoint: median follow-up approximately 11 months
Description: Four hundred thirty seven men with primary osteoporosis were enrolled in the study. Approximately one-third of die patients were randomly assigned to LY333334 40 μg/day plus calcium and vitamin D, one-third of the patients were randomly assigned to LY333334 20 μg/day plus calcium and vitamin D, and one-third of the patients were randomly assigned to placebo plus calcium and vitamin D. • Number of Subjects: • PTH: Male 437, Female 0, Total 437; • LY333334 20 μg: Male: Total 151. • LY333334 40 μg: Male: Total 139. • Placebo: Male: Total 147. • Diagnosis and Inclusion Criteria: The study patients were men with primary osteoporosis, aged 30 to 85 years, inclusive. L-2 to L-4 vertebrae must have been intact without artifacts, crush fracture or other abnormalities which would have interfered with the analysis of the posterior-anterior lumbar spine bone mineral density (BMD) measurement which must have been at least 2.0 SD below that of young, healthy men. […] Patient Demographic and Other Baseline Characteristics

[4] = about 5-6 weeks following termination (18 months)

CC[C@H](C)[C@H](NC(=O)[C@H](CCC(=O)O)NC(=O)[C@H](CO)NC(=O)[C@@H](NC(=O)[C@@H](N)CO)C(C)C)C(=O)N[C@@H](CCC(N)=O)C(=O)N[C@@H](CC(C)C)C(=O)N[C@@H](CCSC)C(=O)N[C@@H](Cc1cnc[nH]1)C(=O)N[C@@H](CC(N)=O)C(=O)N[C@@H](CC(C)C)C(=O)NCC(=O)N[C@@H](CCCCN)C(=O)N[C@@H](Cc1cnc[nH]1)C(=O)N[C@@H](CC(C)C)C(=O)N[C@@H](CC(N)=O)C(=O)N[C@@H](CO)C(=O)N[C@@H](CCSC)C(=O)N[C@@H](CCC(=O)O)C(=O)N[C@@H](CCCN=C(N)N)C(=O)N[C@H](C(=O)N[C@@H](CCC(=O)O)C(=O)N[C@@H](Cc1c[nH]c2ccccc12)C(=O)N[C@@H](CC(C)C)C(=O)N[C@@H](CCCN=C(N)N)C(=O)N[C@@H](CCCCN)C(=O)N[C@@H](CCCCN)C(=O)N[C@@H](CC(C)C)C(=O)N[C@@H](CCC(N)=O)C(=O)N[C@@H](CC(=O)O)C(=O)N[C@H](C(=O)N[C@@H](Cc1cnc[nH]1)C(=O)N[C@@H](CC(N)=O)C(=O)N[C@@H](Cc1ccccc1)C(=O)O)C(C)C)C(C)C [LY333334]
incidence of new vertebral and non-vertebral fractures compared to placebo [1]: reduced the incidence of new vertebral fractures and non-vertebral fractures
effect on bone formation as indicated by bone markers (human subjects; 6 μg): no significant effects
undesirable side effects (human subjects; daily dose of about 20 μg vs about 40 μg): fewer undesirable side effects
lowest tested dose effective for stimulation of bone formation, as indicated by bone markers (human subjects; human subjects, daily dose): about 15 μg
percent change in PICP serum levels during treatment ([2]; FIG. 5): reached a peak within about one or two months
percent change in NTX urine levels during treatment ([2]; FIG. 6): increased steadily until about 6 months after treatment initiation and remained at about the same high level at 12 months
BSAP level after termination of PTH treatment [2, 4]: maintained an elevated level
PICP levels after termination of PTH treatment [2, 4]: PICP levels were the same as HRT controls
percent change in NTX levels after termination of PTH treatment [2, 4]: had declined and approached levels similar to those observed in the control group
patients with a decrease in vertebral BMD at study endpoint ([3]; 20 μg): 7.1%
increase in whole body BMC compared with the placebo group ([3]; 20 μg group): approximately 0.9%
Femoral Neck BMD, mean change from baseline to endpoint ([3]; 20 μg/day): 0.01 ± 0.03 g/cm^2
Femoral Neck BMD, mean percent change from baseline to endpoint ([3]; 20 μg/day): 1.4% and 1.44% and 1.44 ± 3.61%
Intertrochanter BMD, mean change from baseline to endpoint ([3]; 20 μg/day): 0.01 ± 0.03 g/cm^2
Intertrochanter BMD, mean percent change from baseline to endpoint ([3]; 20 μg/day): 1.20 ± 3.07%
Lumbar Spine (L-1 through L-4) BMD, mean change from baseline to endpoint ([3]; 20 μg/day): 0.05 ± 0.04 g/cm^2
Lumbar Spine (L-1 through L-4) BMD, mean percent change from baseline to endpoint ([3]; 20 μg/day): 5.7% and 5.73% and 5.73 ± 4.46%
Total Hip BMD, mean change from baseline to endpoint ([3]; 20 μg/day): 0.01 ± 0.02 g/cm^2
Total Hip BMD, mean percent change from baseline to endpoint ([3]; 20 μg/day): 1.14% and 1.14 ± 2.89%
Trochanter BMD, mean change from baseline to endpoint ([3]; 20 μg/day): 0.01 ± 0.03 g/cm^2
Trochanter BMD, mean percent change from baseline to endpoint ([3]; 20 μg/day): 1.25 ± 4.15%
Ward's Triangle BMD, mean change from baseline to endpoint ([3]; 20 μg/day): 0.01 ± 0.04 g/cm^2
Ward's Triangle BMD, mean percent change from baseline to endpoint ([3]; 20 μg/day): 2.48 ± 7.20%
increase in hip (femoral neck) BMC at study endpoint ([3]; 20 μg/day): 1%
increase in lumbar spine BMC at study endpoint ([3]; 20 μg/day): 7%
Distal Radius (Forearm) BMD, mean change from baseline to endpoint ([3]; 20 μg/day): −0.00 ± 0.02 g/cm^2
Distal Radius (Forearm) BMD, mean percent change from baseline to endpoint ([3]; 20 μg/day): −0.47 ± 2.21%
Ultradistal Radius (Forearm) BMD, mean change from baseline to endpoint ([3]; 20 μg/day): −0.00 ± 0.01 g/cm^2
Ultradistal Radius (Forearm) BMD, mean percent change from baseline to endpoint ([3]; 20 μg/day): −0.40 ± 3.15%
Whole body BMD, mean change from baseline to endpoint ([3]; 20 μg/day): 0.01 ± 0.03 g/cm^2
patients with a decrease in vertebral BMD at study endpoint ([3]; 40 μg): 6.2%
decrease in distal ⅓ radius (forearm) BMD compared with the placebo group ([3]; 40 μg group): 1.0%
increase in whole body BMC compared with the placebo group ([3]; 40 μg group): 1.3%
Femoral Neck BMD, mean change from baseline to endpoint ([3]; 40 μg/day): 0.02 ± 0.04 g/cm^2
Femoral Neck BMD, mean percent change from baseline to endpoint ([3]; 40 μg/day): 2.9% and 2.85% and 2.85 ± 6.07%
Intertrochanter BMD, mean change from baseline to endpoint ([3]; 40 μg/day): 0.02 ± 0.04 g/cm^2
Intertrochanter BMD, mean percent change from baseline to endpoint ([3]; 40 μg/day): 2.32 ± 4.57%
Lumbar Spine (L-1 through L-4) BMD, mean change from baseline to endpoint ([3]; 40 μg/day): 0.07 ± 0.05 g/cm^2
Lumbar Spine (L-1 through L-4) BMD, mean percent change from baseline to endpoint ([3]; 40 μg/day): 8.8% and 8.75% and 8.75 ± 6.25%
Total Hip BMD, mean change from baseline to endpoint ([3]; 40 μg/day): 0.02 ± 0.03 g/cm^2
Total Hip BMD, mean percent change from baseline to endpoint ([3]; 40 μg/day): 2.33% and 2.33 ± 4.51%
Trochanter BMD, mean change from baseline to endpoint ([3]; 40 μg/day): 0.01 ± 0.03 g/cm^2
Trochanter BMD, mean percent change from baseline to endpoint ([3]; 40 μg/day): 1.98 ± 5.16%
Ward's Triangle BMD, mean change from baseline to endpoint ([3]; 40 μg/day): 0.03 ± 0.05 g/cm^2
Ward's Triangle BMD, mean percent change from baseline to endpoint ([3]; 40 μg/day): 6.19 ± 10.21%
increase in hip (femoral neck) BMC at study endpoint ([3]; 40 μg/day): 3%
increase in lumbar spine BMC at study endpoint ([3]; 40 μg/day): 10%
Distal Radius (Forearm) BMD, mean change from baseline to endpoint ([3]; 40 μg/day): −0.01 ± 0.02 g/cm^2
Distal Radius (Forearm) BMD, mean percent change from baseline to endpoint ([3]; 40 μg/day): −0.67 ± 2.36%
Ultradistal Radius (Forearm) BMD, mean change from baseline to endpoint ([3]; 40 μg/day): 0.00 ± 0.02 g/cm^2
Ultradistal Radius (Forearm) BMD, mean percent change from baseline to endpoint ([3]; 40 μg/day): 0.54 ± 5.98%
Whole body BMD, mean change from baseline to endpoint ([3]; 40 μg/day): 0.01 ± 0.03 g/cm^2
patients with an increase in lumbar spine BMD of 5% or more ([3]; 20-μg group): 54.6%
lumbar spine BMD increase from baseline by visit ([3]; 20-μg group, Month 3): 2.44%
lumbar spine BMD increase from baseline by visit ([3]; 20-μg group, Month 6): 4.29
difference in lumbar spine BMD between treatment group and placebo ([3]; 20-μg group, Month 12): 5.49%
lumbar spine BMD increase from baseline by visit ([3]; 20-μg group, Month 12): 6.07%
increase in lumbar spine BMD compared to placebo at endpoint ([3]; 20-μg/day): 5%
lumbar spine BMD response in hypogonadal vs idiopathic subgroups ([3]; 20 and 40 μg): did not differ significantly
patients with an increase in lumbar spine BMD of 5% or more ([3]; 40-μg group): 70.5%
lumbar spine BMD increase from baseline by visit ([3]; 40-μg group, Month 3): 3.87%
lumbar spine BMD increase from baseline by visit ([3]; 40-μg group, Month 6): 6.33%
difference in lumbar spine BMD between treatment group and placebo ([3]; 40-μg group, Month 12): 8.83%
lumbar spine BMD increase from baseline by visit ([3]; 40-μg group, Month 12): 9.41%
increase in lumbar spine BMD compared to placebo at endpoint ([3]; 40-μg/day): 8%
distal ⅓ radius (forearm) and ultradistal radius BMD compared with the placebo group ([3]; both 20-μg and 40-μg groups): unchanged
